Results: patent publication US10202334B2, “Pendant amines and derivatives as inhibitors of leukotriene A4 hydrolase” (Celtaxsys, Inc., priority 2016, dated 2019)
Read-outs that look alike come from different tables or passages of the source.

Tests used:
[1] = target: T1, LTA4 hydrolase peptidase activity (Homo sapiens, UniProt P09960); experiment: Peptidase assay (hydrolysis of L-alanine-p-nitroanilide); type: biochemical
T1 sequence (P09960 1-611): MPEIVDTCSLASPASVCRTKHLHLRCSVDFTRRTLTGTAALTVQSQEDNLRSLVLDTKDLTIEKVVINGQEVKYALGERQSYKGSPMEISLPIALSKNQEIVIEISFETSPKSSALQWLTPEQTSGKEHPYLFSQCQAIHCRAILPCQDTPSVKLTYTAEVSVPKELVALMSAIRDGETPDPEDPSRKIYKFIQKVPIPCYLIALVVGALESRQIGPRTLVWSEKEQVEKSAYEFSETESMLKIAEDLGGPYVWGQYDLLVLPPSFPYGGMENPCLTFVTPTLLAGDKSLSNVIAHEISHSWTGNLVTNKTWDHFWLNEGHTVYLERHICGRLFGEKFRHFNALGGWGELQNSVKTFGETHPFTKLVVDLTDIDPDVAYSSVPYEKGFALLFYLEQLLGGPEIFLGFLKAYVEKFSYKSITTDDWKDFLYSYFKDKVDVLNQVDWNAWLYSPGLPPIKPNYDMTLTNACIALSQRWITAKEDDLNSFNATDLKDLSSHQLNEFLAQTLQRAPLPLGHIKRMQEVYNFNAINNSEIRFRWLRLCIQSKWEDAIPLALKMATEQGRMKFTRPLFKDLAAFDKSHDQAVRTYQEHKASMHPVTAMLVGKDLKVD
Description: Inhibition of peptidase activity was measured for the compounds of the invention by using methods similar to those described in Kull, F. et al., The Journal of Biological Chemistry 1999, 274 (49): 34683-34690.
In brief, the enzyme (29 nM) was incubated with L-alanine-p-nitroanilide (1 mM) in 50 mM HEPES (pH 7.5), 100 mM KCL, 1% DMSO in the absence or presence of a compound of the invention for 1 hour at ambient temperature. Reaction was terminated by addition of acetic acid (1%). Formation of colored nitro-aniline was measured by the increase in absorbance at 405 nm in a Victor 2 plate reader (Wallac). Spontaneous hydrolysis of the substrate was corrected for by subtracting the absorbance of control incubations without enzyme.

[2] = tested on: production of LTB4 in whole blood; experiment: Human whole blood assay (LTB4 release upon calcium ionophore, ELISA); type: cell-based
Description: Compounds of the invention were tested for their ability as inhibitors of LTA4 hydrolase in a whole blood assay using human, mouse, rat or dog whole blood in a manner similar to that described in Penning, T. D. et al., J. Med. Chem. (2000), 43(4): 721-735. In this assay, compounds were tested for their ability to inhibit LTB4 release upon stimulation with calcium ionophore. The LTB4 levels in supernatants were measured by ELISA.

[3] = target: T2, recombinant human LTA4 hydrolase (Homo sapiens, UniProt P09960); experiment: LTA4 hydrolase homogeneous time resolved fluorescence (HTRF) assay; type: biochemical
T2 sequence (P09960 1-611): T1 sequence (P09960 1-611)
Description: Compounds of the invention were tested in the LTA4 hydrolase homogeneous time resolved fluorescence (HTRF) assay to determine their ability to inhibit the hydrolysis of LTA4 to LTB4. The assay analyzes the amount of LTB4 produced.
LTA4 HTRF assay is a two-step assay involving enzymatic conversion of LTA4 to LTB4, and subsequent quantification of LTB4, product with HTRF assay.
The enzymatic conversion of LTA4 to LTB4 was performed in 384-well plates at ambient temperature in a reaction mixture containing 50 mM HEPES (pH 7.5), 0.5% BSA (fatty acid free), 18 nM recombinant human LTA4 hydrolase, 150 nM LTA4, 1% DMSO in the absence or presence of a compound of the invention. Reaction was stopped after 10 minutes incubation by diluting the incubation mixture 10-fold in 50 mM phosphate, 0.1% casein buffer (pH 7.0).
LTB4 formed was quantified with the HTRF assay in which free LTB4 competes with LTB4-XL665 conjugate (acceptor) for anti-LTB4 monoclonal antibody labeled with Europium cryptate (donor), thereby inhibiting the fluorescence energy transfer.
The LTB4 HTRF 384-well assay was carried out by incubating LTB4 samples or standards with LTB4-XL665 conjugate (7.5 ng/well) and anti-LTB4 monoclonal antibody-Europium cryptate conjugate (0.5 ng/well) in 50 mM phosphate, 0.4 M KF and 0.1% casein, buffer (pH 7.0) for two hours at ambient temperature. Plates were read in a RubyStar plate reader (BmG Labtechnologies Inc., NC) simultaneously at 620 nm and 665 nm to obtain signal ratios of 665 nm/620 nm. Results of energy transfer were expressed as delta F (%) which equaled [(signal ratio of sample-signal ratio of negative control)/(signal ratio of negative control)]×100%. Negative controls were control samples without LTB4 or LTB4-XL665.
Sample LTB4 concentrations were calculated from the LTB4 standard curve using the 4-parameter fit equation. For determination IC50 values for a particular compound of the invention, eight serially diluted compound concentrations (at 1:3.16 dilution) were used in this assay. Controls without a compound of the invention or with a reference compound were run parallel in the same assay plate.

[4] = read-out: inhibit peptidase activity, IC50 value
[5] = Homo sapiens, whole blood, read-out: inhibit production of LTB4 in whole blood, IC50 value
[6] = Table 1, human whole blood, read-out: Human Whole Blood IC50
[7] = read-out: inhibit LTA4 hydrolase activity, IC50 value
[8] = Table 1, read-out: Hydrolase IC50
[9] = Table 1, read-out: Peptidase IC50

IC50 [1, 4] | IC50 [2, 5] | IC50 [2, 6] | IC50 [3, 7] | IC50 [3, 8] | IC50 [1, 9] | Compound | IC50 ([2]; whole blood, read-out: inhibit production of LTB4 in whole blood, IC50 value)
215 nM | 252 nM | 252 nM |  |  |  | COC(=O)CCC(=O)NCC(N)CCC(=O)Nc1ccc(Oc2ccccc2)cc1 (stereo in doubt) [Example 6, methyl 3-{[(2R)-2-amino-4-[(4-phenoxyphenyl)carbamoyl]butyl]carbamoyl}propanoate] | 
25 nM | 138 nM | 138 nM | 38 nM |  |  | NC(CCC(=O)NCCN1CCCC1)C(=O)Nc1ccc(Oc2ccc(-n3cccc3)cc2)cc1 (stereo in doubt) [Example 7, (2R)-2-amino-N-{4-[4-(1H-pyrrol-1-yl)phenoxy]phenyl}-N′-[2-(pyrrolidin-1-yl)ethyl]pentanediamide] | 
 |  |  |  | 107 nM | 118 nM | N[C@@H](CCC(=O)Nc1ccc(OCc2ccccc2)cc1)C(=O)NCc1ccccc1 [(2S)-2-amino-N-benzyl-N′-[4-(benzyloxy)phenyl]pentanediamide] | 
24 nM | 117 nM | 117 nM | 27 nM |  |  | CNC(=O)C(N)CCC(=O)Nc1ccc(OCc2ccccc2)cc1 (centres unmarked) [Example 1, 2-amino-N5-(4-(benzyloxy)phenyl)-N1-methylpentanediamide] | 
22 nM | 143 nM | 143 nM | 84 nM |  |  | NC(=O)C(N)CCC(=O)Nc1ccc(Oc2ccccc2)cc1 (centres unmarked) [Example 2, 4-amino-N1-(4-phenoxyphenyl)pentanediamide] | 
21 nM | 55 nM | 55 nM | 17 nM |  |  | COC(=O)[C@@H](N)CCC(=O)Nc1ccc(Oc2ccc(-n3cccc3)cc2)cc1 [Example 4, methyl N^5-(4-(4-(1H-pyrrol-1-yl)phenoxy)phenyl)glutaminate] | 
53 nM | 664 nM | 664 nM | 10 nM |  |  | N[C@H](CCC(=O)Nc1ccc(Oc2ccc(-n3cccc3)cc2)cc1)C(=O)NCCc1cnc[nH]1 [Example 9, (2R)-2-amino-N-[2-(1H-imidazol-5-yl)ethyl]-N′-{4-[4-(1H-pyrrol-1-yl)phenoxy]phenyl}pentanediamide] | 
40 nM |  |  | 73 nM |  |  | CCOC(=O)CCNC(=O)[C@H](N)CCC(=O)Nc1ccc(Oc2ccccc2)cc1 [Example 10, ethyl 3-[(2R)-2-amino-4-[(4-phenoxyphenyl)carbamoyl]butanamido]propanoate] | 
21 nM | 113 nM | 113 nM |  |  |  | COC(=O)[C@@H](N)CCC(=O)Nc1ccc(OCC(O)c2ccccc2)cc1 (stereo partly drawn) [Example 11, methyl (2S)-2-amino-4-{[4-(2-hydroxy-2-phenylethoxy)phenyl]carbamoyl}butanoate] | 
213 nM | 184 nM | 184 nM |  |  |  | COC(=O)[C@@H](N)CCC(=O)Nc1ccc(Nc2ccccc2)cc1 [Example 12, methyl (2S)-2-amino-4-{[4-(phenylamino)phenyl]carbamoyl}butanoate] | 
 |  | 61 nM |  | 67 nM | 31 nM | COC(=O)[C@@H](N)CCC(=O)Nc1ccc(OCC(=O)c2ccccc2)cc1 [methyl N5-(4-(2-oxo-2-phenylethoxy)phenyl)glutaminate] | 
 |  | 41 nM |  |  | 146 nM | CC(C)(C)OC(=O)[C@@H](N)CCC(=O)Nc1ccc(CCC(=O)c2ccccc2)cc1 [tert-butyl N5-(4-(3-oxo-3-phenylpropyl)phenyl)glutaminate] | 

Compound | IC50 [1, 4] | IC50 [2, 5] | IC50 [2, 6] | IC50 [3, 7] | IC50 [3, 8] | IC50 [1, 9] | IC50 ([2]; whole blood, read-out: inhibit production of LTB4 in whole blood, IC50 value)
NC(CCC(=O)Nc1ccc(Oc2ccccc2)cc1)C(=O)NCCCl (centres unmarked) [Example 3, 2-amino-N^1-(2-chloroethyl)-N^5-(4-phenoxyphenyl)pentanediamide] | 24 nM | 83 nM | 83 nM | 58 nM |  |  | 
(2S)-2-amino-N-[2-(pyridin-2-yl)ethyl]-N′-{4-[4-(1H-pyrrol-1-yl)phenoxy]phenyl}pentanediamide [Example 8] | 32 nM |  |  |  |  |  | 264 nM
